Laboratory results as given in patent US20240246940A1, “HETEROARYL DERIVATIVE COMPOUND AND USE THEREOF” (VORONOI INC., priority 2021, published 2024).
Read-outs that look alike come from different tables or passages of the source.

Assays:
[1] = test system: SK-BR-3 cells (HER2 overexpressing cell line); experiment: SK-BR-3 cell proliferation inhibitory activity (CellTiter-Glo, 120 hours); assay type: cell-based
Method in brief: (§1)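 Three independent repeats measured growth inhibition across 11 concentrations. The top final concentration was 10 μM for SK-BR-3 and BT-474, 5 μM for N-87 and 45 μM for HaCaT. Growth relative to control, read by luminescence, yielded GI50.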

[2] = test system: HaCaT cells (EGFR expressing cell line); experiment: HaCaT cell proliferation inhibitory activity (CellTiter-Glo, 72 hours); assay type: cell-based
Method in brief: as §1

Structure (SMILES) | GI50 [1] | GI50 ([1]; Homo sapiens) | GI50 [2] | GI50 ([2]; Homo sapiens)
C=CC(=O)N1CCC(Oc2cc3c(Nc4cc(-c5ccco5)ccc4OC)ncnc3cc2OC)CC1C(F)(F)F (centres unmarked) [Example 114, 1-(4-((4-((5-(furan-2-yl)-2-methoxyphenyl)amino)-7-methoxy-quinazolin-6-yl)oxy)-2-(trifluoro-methyl)piperidin-1-yl)prop-2-en-1-one] | 150 to 1000 nM | – | ≤ 150 nM | –
C=CC(=O)Nc1cc2c(Nc3cc(-c4ccco4)ccc3OC)c(C#N)cnc2cc1OCC [Example 291, N-(3-cyano-7-ethoxy-4-((5-(furan-2-yl)-2-methoxyphenyl)amino)quinolin-6-yl)acrylamide] | – | > 1000 nM | – | ≤ 150 nM
C=CC(=O)Nc1cc2c(Nc3cc(-c4ccoc4C)ccc3OC)ncnc2cc1OC [Example 290, N-(7-methoxy-4-((2-methoxy-5-(2-methylfuran-3-yl)phenyl)amino)quinazolin-6-yl)acrylamide] | – | 150 to 1000 nM | – | ≤ 150 nM
C=CC(=O)N1CCC(Oc2cc3c(Nc4cc(-c5ccnn5C)ccc4OC)ncnc3cc2OC)CC1 [Example 75, 1-(4-((7-methoxy-4-((2-methoxy-5-(1-methyl-1H-pyrazol-5-yl)phenyl)amino)quinazolin-6-yl)oxy)piperidin-1-yl)prop-2-en-1-one] | – | 150 to 1000 nM | – | > 1000 nM
C=CC(=O)N1CCC(Oc2cc3c(Nc4cc(-c5cc(C)cs5)ccc4OC)ncnc3cc2OC)CC1 [Example 83, 1-(4-((7-methoxy-4-((2-methoxy-5-(4-methylthiophen-2-yl)phenyl)amino)quinazolin-6-yl)oxy)piperidin-1-yl)prop-2-en-1-one] | – | 150 to 1000 nM | – | 150 to 1000 nM
C=CC(=O)N1CC(Oc2cc3c(Nc4cc(-c5cccc(F)c5C)ccc4OC)ncnc3cc2OC)C1 [Example 23, 1-(3-((4-((3′-fluoro-4-methoxy-2′-methyl-[1,1′-biphenyl]-3-yl)amino)-7-methoxy-quinazolin-6-yl)oxy)azetidin-1-yl)prop-2-en-1-one] | – | 150 to 1000 nM | – | ≤ 150 nM
C=CC(=O)N1CCC(Oc2cc3c(Nc4cc(-c5ccncc5)ccc4OC)ncnc3cc2OC)CC1 [Example 149, 1-(4-((7-methoxy-4-((2-methoxy-5-(pyridin-4-yl)phenyl)amino)quinazolin-6-yl)oxy)piperidin-1-yl)prop-2-en-1-one] | – | 150 to 1000 nM | – | 150 to 1000 nM
C=CC(=O)N1CCC(Oc2cc3c(Nc4cc(-c5cnco5)ccc4OC)ncnc3cc2OC)CC1 [Example 130, 1-(4-((7-methoxy-4-((2-methoxy-5-(oxazol-5-yl)phenyl)amino)quinazolin-6-yl)oxy)piperidin-1-yl)prop-2-en-1-one] | – | 150 to 1000 nM | – | 150 to 1000 nM
C=CC(=O)N1CCC(Oc2cc3c(Nc4cc(-c5ccc6occc6c5)ccc4OC)ncnc3cc2OC)CC1 [Example 71, 1-(4-((4-((5-(benzofuran-5-yl)-2-methoxyphenyl)amino)-7-methoxy-quinazolin-6-yl)oxy)piperidin-1-yl)prop-2-en-1-one] | – | 150 to 1000 nM | – | > 1000 nM
C=CC(=O)N1CC(Oc2cc3c(Nc4cc(-c5cc(F)cc(F)c5)ccc4OC)ncnc3cc2OC)C1 [Example 11, 1-(3-((4-((3′,5′-difluoro-4-methoxy-[1,1′-biphenyl]-3-yl)amino)-7-methoxy-quinazolin-6-yl)oxy)azetidin-1-yl)prop-2-en-1-one] | – | 150 to 1000 nM | – | ≤ 150 nM

Further lines, with some results ahead:

GI50 [1] | GI50 ([1]; Homo sapiens) | Structure (SMILES) | GI50 [2] | GI50 ([2]; Homo sapiens)
– | ≤ 150 nM | C=CC(=O)N1CCC(Oc2cc3c(Nc4cc(-c5cccs5)ccc4OCC)ncnc3cc2OC)CC1 [Example 117, 1-(4-((4-((2-ethoxy-5-(thiophen-2-yl)phenyl)amino)-7-methoxy-quinazolin-6-yl)oxy)piperidin-1-yl)prop-2-en-1-one] | – | ≤ 150 nM
– | 150 to 1000 nM | C=CC(=O)N1CCC(Oc2cc3c(Nc4cc(-c5cncs5)ccc4OC)ncnc3cc2OC)CC1 [Example 77, 1-(4-((7-methoxy-4-((2-methoxy-5-(thiazol-5-yl)phenyl)amino)quinazolin-6-yl)oxy)piperidin-1-yl)prop-2-en-1-one] | – | 150 to 1000 nM
– | ≤ 150 nM | C=CC(=O)Nc1cc2c(Nc3cc(-c4ccco4)ccc3OC)ncnc2cc1OCCOC [Example 275, N-(4-((5-(furan-2-yl)-2-methoxyphenyl)amino)-7-(2-methoxyethoxy)quinazolin-6-yl)acrylamide] | – | ≤ 150 nM
– | 150 to 1000 nM | C=CC(=O)N1CC(Oc2cc3c(Nc4cc(-c5cccc(NC(=O)N6C(=O)OC[C@H]6c6ccccc6)c5)ccc4OC)ncnc3cc2OC)C1 [Example 236, (R)-N-(3′-((6-((1-acryloylazetidin-3-yl)oxy)-7-methoxyquinazolin-4-yl)amino)-4′-methoxy-[1,1′-biphenyl]-3-yl)-2-oxo-4-phenyloxazolidin-3-carboxamide] | – | > 1000 nM
– | ≤ 150 nM | C=CC(=O)N1CCC(Oc2cc3c(Nc4cc(-c5ccoc5C)ccc4OC)ncnc3cc2OC)CC1 [Example 84, 1-(4-((7-methoxy-4-((2-methoxy-5-(2-methylfuran-3-yl)phenyl)amino)quinazolin-6-yl)oxy)piperidin-1-yl)prop-2-en-1-one] | – | ≤ 150 nM
– | ≤ 150 nM | C=CC(=O)N1CCC(Oc2cc3c(Nc4cc(-c5cnoc5)ccc4OC)ncnc3cc2OC)CC1 [Example 85, 1-(4-((4-((5-(isoxazol-4-yl)-2-methoxyphenyl)amino)-7-methoxy-quinazolin-6-yl)oxy)piperidin-1-yl)prop-2-en-1-one] | – | ≤ 150 nM
– | 150 to 1000 nM | C=CC(=O)N1CC(Oc2cc3c(Nc4cc(-c5ccc6ncnn6c5)ccc4OC)ncnc3cc2OC)C1 [Example 31, 1-(3-((4-((5-([1,2,4]triazolo [1,5-a]pyridin-6-yl)-2-methoxyphenyl)amino)-7-methoxy-quinazolin-6-yl)oxy)azetidin-1-yl)prop-2-en-1-one] | – | > 1000 nM
– | ≤ 150 nM | C=CC(=O)Nc1cc2c(Nc3cc(-c4ccco4)ccc3OC)ncnc2cc1OCCCOC [Example 273, N-(4-((5-(furan-2-yl)-2-methoxyphenyl)amino)-7-(3-methoxypropoxy)quinazolin-6-yl)acrylamide] | – | ≤ 150 nM
– | ≤ 150 nM | C=CC(=O)N1CC(Oc2cc3c(Nc4cc(-c5cccc(F)c5F)ccc4OC)ncnc3cc2OC)C1 [Example 19, 1-(3-((4-((2′,3′-difluoro-4-methoxy-[1,1′-biphenyl]-3-yl)amino)-7-methoxy-quinazolin-6-yl)oxy)azetidin-1-yl) prop-2-en-1-one] | – | ≤ 150 nM
– | ≤ 150 nM | C=CC(=O)N1CC(Oc2cc3c(Nc4cc(-c5cccn6ccnc56)ccc4OC)ncnc3cc2OC)C1 [Example 35, 1-(3-((4-((5-(imidazo[1,2-a]pyridin-8-yl)-2-methoxyphenyl)amino)-7-methoxy-quinazolin-6-yl)oxy)azetidin-1-yl)prop-2-en-1-one] | – | 150 to 1000 nM
– | ≤ 150 nM | C=CC(=O)N1CC(Oc2cc3c(Nc4cc(-c5cccs5)ccc4OC4CCOCC4)ncnc3cc2OC)C1 [Example 248, 1-(3-((7-methoxy-4-((2-((tetrahydro-2H-pyran-4-yl)oxy)-5-(thiophen-2-yl)phenyl)amino)quinazolin-6-yl)oxy)azetidin-1-yl)prop-2-en-1-one] | – | ≤ 150 nM
– | ≤ 150 nM | C=CC(=O)N1CCC(Oc2cc3c(Nc4cc(-c5ccco5)cnc4OC)ncnc3cc2OC)CC1 [Example 104, 1-(4-((4-((5-(furan-2-yl)-2-methoxy-pyridin-3-yl)amino)-7-methoxy-quinazolin-6-yl)oxy)piperidin-1-yl)prop-2-en-1-one] | – | ≤ 150 nM
